{"source": "patent US20050148593A1", "about": "“Compounds, compositions, and methods” (priority 2003, published 2005)", "origin": "cited, not measured here"}
{"tested_on": "A549 cells", "conditions": "data provided by National Cancer Institute, Developmental Therapeutic Program", "units": {"GI50": "nM"}}
{"smiles": "NC(=O)NO", "note": "[hydroxyurea]", "GI50": 500000}
{"smiles": "CC(=O)O[C@H]1C(=O)[C@@]2(C)[C@H]([C@H](OC(=O)c3ccccc3)[C@]3(O)C[C@H](OC(=O)[C@H](O)[C@@H](NC(=O)c4ccccc4)c4ccccc4)C(C)=C1C3(C)C)[C@]1(OC(C)=O)CO[C@@H]1C[C@@H]2O", "note": "[paclitaxel]", "GI50": 4}
{"smiles": "O=c1[nH]cc(F)c(=O)[nH]1", "note": "[5-fluorouracil]", "GI50": 1000}
{"smiles": "COc1cccc2c1C(=O)c1c(O)c3c(c(O)c1C2=O)C[C@@](O)(C(=O)CO)C[C@@H]3O[C@H]1C[C@H](N)[C@H](O)[C@H](C)O1", "note": "[doxorubicin]", "GI50": 63}
